# According to ChEMBL document CHEMBL4765241, “Identification and Preclinical Pharmacology of ((1 R,3 S)-1-Amino-3-(( S)-6-(2-methoxyphenethyl)-5,6,7,8-tetrahydronaphthalen-2-yl)cyclopentyl)methanol (BMS-986166): A Differentiated Sphingosine-1-phosphate Receptor 1 (S1P) Modulator Advanced into Clinical Trials” (J Med Chem, 2019):
# Experiments:
# [1] = Volume of distribution at steady state in Beagle dog at 0.3 mg/kg, po or 1 mg/kg, iv; assay type: ADME, organism-based, Canis lupus familiaris; conditions: in vivo, read-out: Vdss
# [2] = Protein binding in human assessed as bound fraction; assay type: ADME; conditions: read-out: PB
# [3] = Metabolic stability in cynomolgus monkey liver microsomes assessed as half-life; assay type: ADME, Macaca fascicularis, Microsome
# [4] = Metabolic stability in rat liver microsomes assessed as half-life measured upto 120 mins in presence of NADPH-generating system by LC/MS/MS analysis; assay type: ADME, Microsome
# [5] = test system: Mus musculus; assay: Immunosuppressive activity in MOG (35 to 55 residues)/pertussis toxin-induced experimental autoimmune encephalomyelitis C57BL/6 mouse model assessed as reduction in formation of inflammatory lesions in CNS administered orally once daily starting from day 1 post immunization and measured thrice weekly until day 24; assay type: functional, organism-based; conditions: dose 0.1-0.5 mg/kg
# [6] = AUC ratio in orally dosed Sprague-Dawley rat blood assessed as phosphate metabolite to parent compound; assay type: ADME, organism-based; conditions: in vivo, po
# [7] = Volume of distribution at steady state in cynomolgus monkey at 1 mg/kg, po or 1 mg/kg, iv; assay type: ADME, organism-based, Macaca fascicularis; conditions: in vivo, read-out: Vdss
# [8] = Oral bioavailability in beagle dog at 0.3 mg/kg; assay type: ADME, organism-based, Canis lupus familiaris; conditions: in vivo
# [9] = test system: Rattus norvegicus; assay: Reduction in circulating lymphocytes in Lewis rat blood at 2 mg/kg, po measured at 24 hrs by hematology analyzer based analysis; assay type: functional; design: scale not given: the % may be the effect or the level left
# [10] = biological target: Cytochrome P450 2C9 (Homo sapiens, UniProt P11712); assay: Inhibition of CYP2C9 (unknown origin); assay type: ADME
# [11] = Clearance in cynomolgus monkey at 1 mg/kg, iv; assay type: ADME, organism-based, Macaca fascicularis; conditions: in vivo
# [12] = test system: Rattus norvegicus; assay: Reduction in circulating lymphocytes in Lewis rat blood at 2 mg/kg, po measured at 4 hrs by hematology analyzer based analysis; assay type: functional; design: scale not given: the % may be the effect or the level left
# [13] = biological target: Cytochrome P450 3A4 (Homo sapiens, UniProt P08684); assay: Inhibition of CYP3A4 (unknown origin); assay type: ADME
# [14] = test system: Rattus norvegicus; assay: Reduction in circulating lymphocytes in Lewis rat blood assessed as effective dose after oral dosing measured at 24 hrs by hematology analyzer based analysis; assay type: functional
# [15] = Clearance in Sprague-Dawley rat at 1 mg/kg, iv; assay type: ADME, organism-based; conditions: in vivo
# [16] = biological target: T1, Cytochrome P450 1A2 (Homo sapiens, UniProt P05177); assay: Inhibition of CYP1A2 (unknown origin); assay type: ADME
# T1 sequence (P05177 whole entry): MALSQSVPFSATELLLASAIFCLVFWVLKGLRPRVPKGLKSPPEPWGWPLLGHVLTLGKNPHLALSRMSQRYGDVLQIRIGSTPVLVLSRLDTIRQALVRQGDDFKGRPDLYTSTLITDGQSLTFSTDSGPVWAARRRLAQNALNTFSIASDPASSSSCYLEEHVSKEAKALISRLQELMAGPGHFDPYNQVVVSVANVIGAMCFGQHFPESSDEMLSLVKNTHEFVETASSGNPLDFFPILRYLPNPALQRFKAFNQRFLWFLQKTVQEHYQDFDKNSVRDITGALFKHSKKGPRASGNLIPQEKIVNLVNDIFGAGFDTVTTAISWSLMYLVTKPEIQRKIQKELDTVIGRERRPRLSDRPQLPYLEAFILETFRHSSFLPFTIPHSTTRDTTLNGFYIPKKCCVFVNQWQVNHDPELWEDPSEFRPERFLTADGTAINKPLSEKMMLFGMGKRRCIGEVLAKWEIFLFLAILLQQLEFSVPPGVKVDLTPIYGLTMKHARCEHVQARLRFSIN
# [17] = test system: Mus musculus; assay: Antiarthritic activity in DBA/1 mouse model of collagen-induced arthritis assessed as reduction in paw histological score at 0.1 mg/kg, po QD administered as single dose for 21 days; assay type: functional; design: scale not given: the % may be the effect or the level left; conditions: time 21 day
# [18] = AUC ratio in orally dosed cynomolgus monkey blood assessed as phosphate metabolite to parent compound; assay type: ADME, organism-based, Macaca fascicularis; conditions: in vivo, po
# [19] = biological target: Cytochrome P450 2C19 (Homo sapiens, UniProt P33261); assay: Inhibition of CYP2C19 (unknown origin); assay type: ADME
# [20] = Half-life in Lewis rat at 2 mg/kg, po measured over 72 hrs by LC-MS/MS analysis; assay type: ADME, organism-based; conditions: in vivo
# [21] = Tmax in Beagle dog at 0.3 mg/kg, po or 1 mg/kg, iv; assay type: ADME, organism-based, Canis lupus familiaris; conditions: in vivo
# Cytochrome P450 2C9, sequence (P11712 whole entry): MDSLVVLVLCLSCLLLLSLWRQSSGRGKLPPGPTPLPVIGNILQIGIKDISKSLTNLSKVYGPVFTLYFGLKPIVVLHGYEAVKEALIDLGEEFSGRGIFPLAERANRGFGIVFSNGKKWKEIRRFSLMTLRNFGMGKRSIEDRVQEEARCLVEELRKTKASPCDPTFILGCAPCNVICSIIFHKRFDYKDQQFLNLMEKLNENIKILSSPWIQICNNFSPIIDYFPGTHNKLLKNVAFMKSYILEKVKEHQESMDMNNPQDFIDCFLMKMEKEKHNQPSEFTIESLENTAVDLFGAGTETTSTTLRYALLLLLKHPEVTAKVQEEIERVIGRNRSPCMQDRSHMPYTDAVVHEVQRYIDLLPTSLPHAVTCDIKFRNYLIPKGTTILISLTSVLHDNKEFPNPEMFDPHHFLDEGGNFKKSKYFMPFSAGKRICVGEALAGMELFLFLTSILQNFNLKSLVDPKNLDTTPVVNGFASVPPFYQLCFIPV
# Cytochrome P450 2C19, sequence (P33261 whole entry): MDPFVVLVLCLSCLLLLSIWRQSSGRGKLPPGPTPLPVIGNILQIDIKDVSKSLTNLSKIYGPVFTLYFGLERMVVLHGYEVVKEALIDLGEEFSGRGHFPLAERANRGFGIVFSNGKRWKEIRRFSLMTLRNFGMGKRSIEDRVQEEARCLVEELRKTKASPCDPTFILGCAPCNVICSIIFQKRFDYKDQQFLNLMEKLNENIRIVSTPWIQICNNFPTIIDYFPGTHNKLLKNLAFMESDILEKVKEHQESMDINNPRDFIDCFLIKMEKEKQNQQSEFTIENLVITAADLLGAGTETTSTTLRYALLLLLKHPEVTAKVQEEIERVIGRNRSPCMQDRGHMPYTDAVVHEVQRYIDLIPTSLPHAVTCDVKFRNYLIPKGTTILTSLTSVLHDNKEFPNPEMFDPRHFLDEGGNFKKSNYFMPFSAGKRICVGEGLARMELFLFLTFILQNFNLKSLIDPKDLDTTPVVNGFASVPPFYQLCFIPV
# Cytochrome P450 3A4, sequence (P08684 whole entry): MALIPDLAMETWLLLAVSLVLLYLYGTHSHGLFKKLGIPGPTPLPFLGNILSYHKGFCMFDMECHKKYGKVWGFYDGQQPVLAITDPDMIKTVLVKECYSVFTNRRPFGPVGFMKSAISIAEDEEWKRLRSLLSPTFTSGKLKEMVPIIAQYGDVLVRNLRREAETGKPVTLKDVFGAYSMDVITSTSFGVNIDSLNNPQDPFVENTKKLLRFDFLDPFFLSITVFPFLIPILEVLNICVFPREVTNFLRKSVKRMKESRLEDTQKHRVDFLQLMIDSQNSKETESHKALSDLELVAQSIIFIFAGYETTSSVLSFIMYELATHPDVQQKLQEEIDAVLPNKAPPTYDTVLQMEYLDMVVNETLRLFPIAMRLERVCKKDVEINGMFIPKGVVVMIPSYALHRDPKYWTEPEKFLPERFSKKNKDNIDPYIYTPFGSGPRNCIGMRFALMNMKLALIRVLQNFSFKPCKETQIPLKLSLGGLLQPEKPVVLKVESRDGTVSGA
structure (smiles),measurement,setting,value
COc1ccccc1CC[C@@H]1CCc2cc([C@H]3CC[C@](N)(CO)C3)ccc2C1 [UDIFITIMOD],Vd,[1],21 L/kg
same,fraction unbound,[2],< 0.001
same,half-life,[3],1.83 h
same,half-life,[4],1.62 h
same,Activity,[5],Dose-dependent effect
same,Ratio AUC,[6],5.2
same,Vd,[7],10 L/kg
same,bioavailability,[8],61%
same,Activity,[9],81%
same,IC50,[10],14 µM
same,clearance,[11],3.8 mL/min/kg
same,Activity,[12],76%
same,IC50,[13],5.5 µM
same,ED50,[14],0.1 mg/kg
same,clearance,[15],9.7 mL/min/kg
same,IC50,[16],> 20 µM
same,Activity,[17],41%
same,Ratio AUC,[18],1
same,IC50,[19],6.9 µM
same,half-life,[20],27 h
same,Tmax,[21],6 h
